Assays:
[1] = target: T1, BACE1 (Homo sapiens (Human), UniProt P56817); assay: Measurement of Aβ production inhibition in cell (SK-N-BE(2) neuroblastoma cells, Aβ40 ELISA); details: Test Example 3 IC50, Aβ40 production, SK-N-BE(2) cells, 6 hours
Target sequence in this assay (P56817 46-501): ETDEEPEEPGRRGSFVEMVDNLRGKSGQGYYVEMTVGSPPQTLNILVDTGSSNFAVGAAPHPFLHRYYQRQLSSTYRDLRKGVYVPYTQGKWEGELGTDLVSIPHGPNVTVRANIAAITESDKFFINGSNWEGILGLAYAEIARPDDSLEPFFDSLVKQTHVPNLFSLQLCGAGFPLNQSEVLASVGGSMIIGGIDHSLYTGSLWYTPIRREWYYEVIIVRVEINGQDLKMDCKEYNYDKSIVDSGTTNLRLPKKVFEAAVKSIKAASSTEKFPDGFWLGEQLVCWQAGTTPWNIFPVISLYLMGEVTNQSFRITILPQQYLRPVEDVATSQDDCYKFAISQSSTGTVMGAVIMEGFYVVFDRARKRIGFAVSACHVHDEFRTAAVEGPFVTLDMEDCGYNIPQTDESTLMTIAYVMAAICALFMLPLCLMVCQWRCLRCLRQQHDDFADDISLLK

[2] = target: T1, BACE1; assay: Measurement of BACE1 inhibition by time resolved fluorescence resonance energy transfer (TR-FRET); format: biochemical; details: Eu-CEVNLDAEFK-QSY 7 substrate, read-out: Test Example 2 IC50
Target sequence in this assay (P56817 75-416): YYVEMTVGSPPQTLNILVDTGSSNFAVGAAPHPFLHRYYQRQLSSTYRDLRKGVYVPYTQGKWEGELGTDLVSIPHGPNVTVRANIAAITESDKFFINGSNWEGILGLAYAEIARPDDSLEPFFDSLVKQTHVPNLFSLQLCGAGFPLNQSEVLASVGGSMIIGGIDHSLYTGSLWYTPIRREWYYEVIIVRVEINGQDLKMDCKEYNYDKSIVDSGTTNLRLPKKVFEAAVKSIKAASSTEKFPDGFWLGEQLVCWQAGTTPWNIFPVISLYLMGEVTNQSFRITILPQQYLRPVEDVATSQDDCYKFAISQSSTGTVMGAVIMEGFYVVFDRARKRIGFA
Procedure: If the sample contains BACE1 activity, the Eu chelate and the quencher will be separated as the substrate is cleaved. The Eu-signal increases and it can be measured by time-resolved fluorometry, EnVision™, 30 minutes after the substrate (final concentration 300 nM) was added.

[3] = target: T1, BACE1; assay: Measurement of BACE1 inhibition by fluorescence resonance energy transfer (FRET), MCA substrate; details: FRET; for IC50: read-out: Test Example 1 IC50, MCA-SEVNLDAEFK(DNP)-NH2 substrate, pH 4.4; for Ki: read-out: Test Example 1 BACE1 MCA Ki, MCA substrate
Target sequence in this assay (P56817 75-416): as above

[4] = target: hERG potassium channel (Homo sapiens (Human), UniProt Q12809); assay: hERG inhibition, automated planar patch-clamp in hERG-expressing CHO cells; details: read-out: Test Example 5 hERG IC50; whole-cell patch clamp, room temperature
Sequence of hERG potassium channel (Q12809 whole entry): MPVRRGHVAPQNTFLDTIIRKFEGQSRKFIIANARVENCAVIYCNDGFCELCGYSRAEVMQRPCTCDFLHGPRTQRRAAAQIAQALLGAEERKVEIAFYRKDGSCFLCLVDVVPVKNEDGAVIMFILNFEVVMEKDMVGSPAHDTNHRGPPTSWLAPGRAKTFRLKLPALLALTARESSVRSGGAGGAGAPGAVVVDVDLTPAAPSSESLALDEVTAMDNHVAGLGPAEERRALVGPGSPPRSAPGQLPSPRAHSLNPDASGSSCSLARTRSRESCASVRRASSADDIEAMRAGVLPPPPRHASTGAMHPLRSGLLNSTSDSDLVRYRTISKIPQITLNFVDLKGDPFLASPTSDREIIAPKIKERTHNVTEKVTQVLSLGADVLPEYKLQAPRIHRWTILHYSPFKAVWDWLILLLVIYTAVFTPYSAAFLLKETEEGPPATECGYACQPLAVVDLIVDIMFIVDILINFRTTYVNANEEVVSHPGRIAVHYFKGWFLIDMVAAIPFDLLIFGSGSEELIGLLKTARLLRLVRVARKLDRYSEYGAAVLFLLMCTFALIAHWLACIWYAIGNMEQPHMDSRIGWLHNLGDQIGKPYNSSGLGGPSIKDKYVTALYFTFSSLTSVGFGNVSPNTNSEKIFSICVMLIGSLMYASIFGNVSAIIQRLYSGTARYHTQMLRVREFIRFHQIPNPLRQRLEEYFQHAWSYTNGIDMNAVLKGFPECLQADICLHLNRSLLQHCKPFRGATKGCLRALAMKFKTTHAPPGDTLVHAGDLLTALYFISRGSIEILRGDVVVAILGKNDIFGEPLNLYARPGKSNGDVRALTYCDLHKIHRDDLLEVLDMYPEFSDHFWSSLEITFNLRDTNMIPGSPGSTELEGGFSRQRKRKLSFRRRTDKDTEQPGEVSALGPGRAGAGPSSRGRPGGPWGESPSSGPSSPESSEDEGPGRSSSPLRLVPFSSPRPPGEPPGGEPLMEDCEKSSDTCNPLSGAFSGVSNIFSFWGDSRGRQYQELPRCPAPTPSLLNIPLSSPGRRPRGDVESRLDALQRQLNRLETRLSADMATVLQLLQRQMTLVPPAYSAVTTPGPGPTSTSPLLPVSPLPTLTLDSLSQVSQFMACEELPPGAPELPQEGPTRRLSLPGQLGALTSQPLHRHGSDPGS

COc1ccnc(-c2ccc3c(c2)C2(COC(N)=N2)C2(COC2)C(C)(C)O3)c1 (stereo not shown) [RP 65, 6′-(4-methoxypyridin-2-yl)-2′,2′-dimethyldispiro[1,3-oxazole-4,4′-chromene-3′,3″-oxetan]-2-amine]
IC50 [1]: 49 nM
IC50 [2]: 388 nM

CC#Cc1cc(-c2ccc3c(c2)C2(COC(N)=N2)C2(COC2)CO3)ncn1 (stereo not shown) [RP 21]
IC50 [1]: 410 nM
IC50 [2]: 1350 nM

CC1(C)Oc2ccc(-c3cccc(OC(F)(F)F)c3)cc2C2(COC(N)=N2)C12COC2 (stereo not shown) [RP 183]
IC50 [3]: 1080 nM
IC50 [2]: 880 nM

CC1(C)Oc2ccc(-c3ccc4[nH]ncc4c3)cc2C2(COC(N)=N2)C12COC2 (stereo not shown) [RP 177]
IC50 [1]: 1500 nM
IC50 [2]: 2120 nM

CC#Cc1cncc(-c2ccc3c(c2)C2(COC(N)=N2)C2(COC2)CO3)n1 (stereo not shown) [RP 22]
IC50 [1]: 2900 nM
IC50 [2]: 2600 nM

COc1cc(-c2ccc3c(c2)C2(COC(N)=N2)C2(COC2)C(C)(C)O3)ccn1 (stereo not shown) [RP 164]
IC50 [2]: 2310 nM

CC1(C)Oc2ccc(-c3ccc4c(c3)OCO4)cc2C2(COC(N)=N2)C12COC2 (stereo not shown) [RP 182]
IC50 [1]: 2500 nM
IC50 [2]: 1450 nM

CC#Cc1cc(-c2ccc3c(c2)C2(COC(N)=N2)C2(COC2)CO3)ccn1 (stereo not shown) [RP 20]
IC50 [1]: 580 nM
IC50 [2]: 2710 nM

CC1(C)Oc2ccc(-c3cccc4[nH]ncc34)cc2C2(COC(N)=N2)C12COC2 (stereo not shown) [RP 176]
IC50 [1]: 850 nM
IC50 [2]: 994 nM

CC#Cc1cncc(-c2ccc3c(c2)C2(COC(N)=N2)C2(CC2)CO3)c1 (stereo not shown) [RP 111]
IC50 [1]: 140 nM
Ki [3]: 252 nM
IC50 [3]: 287 nM
IC50 [4]: 1980 nM

CC1(C)Oc2ccc(-c3cc(F)ccn3)cc2C2(COC(N)=N2)C12COC2 (stereo not shown) [RP 149]
IC50 [1]: 1100 nM
IC50 [2]: 1590 nM

NC1=NC2(CO1)c1cc(-c3cncnc3)ccc1OC(CC1CC1)C21COC1 (stereo not shown) [RP 207]
IC50 [1]: 160 nM
IC50 [3]: 460 nM
IC50 [4]: > 10000 nM

NC1=NC2(CO1)c1cc(-c3cncnc3)ccc1OC(CC1CC1)C21COC1 (stereo not shown) [RP 204]
IC50 [1]: 240 nM
IC50 [3]: 388 nM
IC50 [4]: > 10000 nM

NC1=NC2(CO1)c1cc(-c3cnc4ccccc4c3)ccc1OC1(CCC1)C21COC1 (stereo not shown) [RP 211]
IC50 [2]: 19400 nM

NC1=NC2(CO1)c1cc(-c3cncc(C(F)F)c3)ccc1OC1(CCC1)C21COC1 (stereo not shown) [RP 118]
IC50 [1]: 990 nM
IC50 [3]: 1810 nM
IC50 [4]: > 10000 nM

NC1=NC2(CO1)c1cc(Br)ccc1OC(Cc1ccccc1)C21COC1 (single isomer, unassigned) [RP 15b]
IC50 [1]: 440 nM
IC50 [3]: 1010 nM
IC50 [4]: 7930 nM

NC1=NC2(CO1)c1cc(-c3cccnc3)ccc1OC1(CCC1)C21COC1 (stereo not shown) [RP 209]
IC50 [1]: 830 nM
IC50 [3]: 2000 nM
IC50 [4]: > 10000 nM

CC1(C)Oc2ccc(-c3cccc4cc[nH]c34)cc2C2(COC(N)=N2)C12COC2 (stereo not shown) [RP 175]
IC50 [3]: 3230 nM
IC50 [2]: 1550 nM

NC1=NC2(CO1)c1cc(C3=CCOCC3)ccc1OCC21COC1 (stereo not shown) [RP 24]
IC50 [3]: 37900 nM
IC50 [2]: 32900 nM

CC1(C)Oc2ccc(-c3ccnc(Cl)c3)cc2C2(COC(N)=N2)C12COC2 (stereo not shown) [RP 163]
IC50 [2]: 1060 nM

Cc1cc(-c2ccc3c(c2)C2(COC(N)=N2)C2(COC2)CO3)ccn1 (stereo not shown) [RP 37]
IC50 [2]: 55400 nM

NC1=NC2(CO1)c1cc(-c3cncnc3)ccc1OCC21CC(F)(F)C1 (stereo not shown) [RP 208]
IC50 [1]: 6100 nM
IC50 [3]: 7760 nM
IC50 [4]: > 10000 nM

CCCC1Oc2ccc(-c3cncnc3)cc2C2(COC(N)=N2)C12COC2 (stereo not shown) [RP 91]
IC50 [1]: 340 nM
IC50 [3]: 656 nM
IC50 [4]: > 10000 nM

NC1=NC2(CO1)c1cc(-c3cccnc3F)ccc1OC1(CCC1)C21COC1 (stereo not shown) [RP 71]
IC50 [1]: 110 nM
IC50 [3]: 1080 nM
IC50 [4]: > 10000 nM

CCC1CC=C(c2ccc3c(c2)C2(COC(N)=N2)C2(COC2)C(C)(C)O3)CC1 (stereo not shown) [RP 172]
IC50 [3]: 2240 nM
IC50 [2]: 2160 nM

CCC1Oc2ccc(-c3cncnc3)cc2C2(COC(N)=N2)C12COC2 (stereo not shown) [RP 84]
IC50 [1]: 410 nM
IC50 [3]: 735 nM
IC50 [4]: > 10000 nM

CC1(C)Oc2ccc(-c3cccc4[nH]ccc34)cc2C2(COC(N)=N2)C12COC2 (stereo not shown) [RP 186]
IC50 [2]: 2420 nM

NC1=NC2(CO1)c1cc(Br)ccc1OC(CC1CC1)C21COC1 (single isomer, unassigned) [RP 16b]
IC50 [1]: 4800 nM
IC50 [3]: 4570 nM
IC50 [4]: > 10000 nM

CC#Cc1cncc(-c2ccc3c(c2)C2(COC(N)=N2)C2(COC2)C(CCC)O3)c1 (stereo not shown) [RP 92]
IC50 [1]: 37 nM
Ki [3]: 87.9 nM
IC50 [3]: 124 nM
IC50 [4]: 5340 nM

CC1(C)Oc2ccc(-c3cnc4[nH]ccc4c3)cc2C2(COC(N)=N2)C12COC2 (stereo not shown) [RP 168]
IC50 [1]: 310 nM
IC50 [2]: 760 nM

NC1=NC2(CO1)c1cc(-c3cncnc3)ccc1OCC21CC1 (stereo not shown) [RP 100]
IC50 [1]: 250 nM
IC50 [3]: 2620 nM
IC50 [4]: > 10000 nM

CC1(C)Oc2ccc(-c3ccccc3OC(F)(F)F)cc2C2(COC(N)=N2)C12COC2 (stereo not shown) [RP 184]
IC50 [3]: 2820 nM
IC50 [2]: 2720 nM

Cc1cncc(-c2ccc3c(c2)C2(COC(N)=N2)C2(COC2)C2(CCC2)O3)c1 (stereo not shown) [RP 75, 6′-(5-methylpyridin-3-yl)trispiro[cyclobutane-1,2′-chromene-4′,4″-[1,3]oxazole-3′,3′″-oxetan]-2″-amine]
IC50 [1]: 1100 nM
IC50 [3]: 3670 nM
IC50 [4]: > 10000 nM

CC1(C)Oc2ccc(-c3ccc(OC(F)F)cc3)cc2C2(COC(N)=N2)C12COC2 (stereo not shown) [RP 187]
IC50 [3]: 3160 nM
IC50 [2]: 1920 nM

CC#Cc1cncc(-c2ccc3c(c2)C2(COC(N)=N2)C2(CC2)CO3)c1 (single isomer, unassigned) [RP 52a, 6′-[5-(prop-1-yn-1-yl)pyridin-3-yl]dispiro[cyclopropane-1,3′-chromene-4′,4″-[1,3]oxazol]-2″-amine]
IC50 [1]: 75 nM
IC50 [3]: 161 nM
IC50 [4]: 4830 nM

CC#Cc1cncc(-c2ccc3c(c2)C2(COC(N)=N2)C2(COC2)C(CC)O3)c1 (stereo not shown) [RP 86]
IC50 [1]: 58 nM
Ki [3]: 107 nM
IC50 [3]: 143 nM
IC50 [4]: 7940 nM

NC1=NC2(CO1)c1cc(-c3cncnc3)ccc1OC1(CCCC1)C21COC1 (stereo not shown) [RP 85]
IC50 [1]: 77 nM
IC50 [3]: 319 nM
IC50 [4]: > 10000 nM

CC(C)Cc1ccc2c(c1)C1(COC(N)=N1)C1(COC1)C1(CCC1)O2 (stereo not shown) [RP 46, 6′-isobutyltrispiro[cyclobutane-1,2′-chromene-4′,4″-[1,3]oxazole-3′,3′″-oxetan]-2″-amine]
IC50 [1]: 1400 nM
IC50 [3]: 8940 nM
IC50 [4]: > 10000 nM

NC1=NC2(COC1)c1cc(-c3cncnc3)ccc1OCC21CC1 (stereo not shown) [RP 215, 6′-(pyrimidin-5-yl)-6″H-dispiro[cyclopropane-1,3′-chromene-4′,3″-[1,4]oxazin]-5″-amine]
IC50 [1]: 240 nM
IC50 [3]: 1210 nM
IC50 [4]: > 10000 nM

NC1=NC2(CO1)c1cc(-c3cncnc3)ccc1OC1(CCC1)C21COC1 (stereo not shown) [RP 5]
IC50 [1]: 590 nM
IC50 [3]: 1560 nM
IC50 [4]: > 10000 nM

CC1(C)Oc2ccc(-c3cncc(Cl)n3)cc2C2(COC(N)=N2)C12COC2 (stereo not shown) [RP 150]
IC50 [1]: 450 nM
IC50 [2]: 759 nM

COc1ncc(Cl)cc1-c1ccc2c(c1)C1(COC(N)=N1)C1(COC1)C(C)(C)O2 (stereo not shown) [RP 155]
IC50 [1]: 630 nM
IC50 [2]: 786 nM

NC1=NC2(CO1)c1cc(-c3cc(Cl)cnc3F)ccc1OCC21COC1 (stereo not shown) [RP 34]
IC50 [1]: 260 nM
IC50 [3]: 1240 nM
IC50 [4]: > 10000 nM

NC1=NC2(CO1)c1cc(-c3cncnc3)ccc1OC(Cc1ccccc1)C21COC1 (stereo not shown) [RP 200]
IC50 [1]: 26 nM
Ki [3]: 92.1 nM
IC50 [3]: 128 nM
IC50 [4]: > 10000 nM

COCc1cnn(-c2ccc3c(c2)C2(COC(N)=N2)C2(COC2)C2(CCC2)O3)c1 (stereo not shown) [RP 4]
IC50 [1]: 7200 nM
IC50 [3]: 12600 nM
IC50 [4]: > 10000 nM

NC1=NC2(c3cc(-c4cncnc4)ccc3OCC23CC3)c2cccc(F)c21 (stereo not shown) [RP 199]
IC50 [1]: 240 nM
IC50 [3]: 736 nM
IC50 [4]: 4250 nM

NC1=NC2(CO1)c1cc(-c3cncnc3)ccc1OC(C1CC1)C21COC1 (stereo not shown) [RP 88]
IC50 [1]: 1400 nM
IC50 [3]: 2510 nM
IC50 [4]: > 10000 nM
